For series [1] the following is noted: cited from earlier work.
In series [2] the target is relaxin family peptide receptor 1 (RXFP1), stably expressed on human embryonic kidney cells (HEK-RXFP1) (UniProt Q9HBX9). Nature of the series: cell-based or functional assay.
For series [3], the target named is T1, relaxin family peptide receptor 1 (RXFP1) (Homo sapiens, UniProt Q9HBX9).
T1 construct: expressed in transfected cells; host or cells: HEK (human embryonic kidney) cells stably expressing RXFP1, with pCRE beta-galactosidase reporter
T1 sequence (Q9HBX9 1-757): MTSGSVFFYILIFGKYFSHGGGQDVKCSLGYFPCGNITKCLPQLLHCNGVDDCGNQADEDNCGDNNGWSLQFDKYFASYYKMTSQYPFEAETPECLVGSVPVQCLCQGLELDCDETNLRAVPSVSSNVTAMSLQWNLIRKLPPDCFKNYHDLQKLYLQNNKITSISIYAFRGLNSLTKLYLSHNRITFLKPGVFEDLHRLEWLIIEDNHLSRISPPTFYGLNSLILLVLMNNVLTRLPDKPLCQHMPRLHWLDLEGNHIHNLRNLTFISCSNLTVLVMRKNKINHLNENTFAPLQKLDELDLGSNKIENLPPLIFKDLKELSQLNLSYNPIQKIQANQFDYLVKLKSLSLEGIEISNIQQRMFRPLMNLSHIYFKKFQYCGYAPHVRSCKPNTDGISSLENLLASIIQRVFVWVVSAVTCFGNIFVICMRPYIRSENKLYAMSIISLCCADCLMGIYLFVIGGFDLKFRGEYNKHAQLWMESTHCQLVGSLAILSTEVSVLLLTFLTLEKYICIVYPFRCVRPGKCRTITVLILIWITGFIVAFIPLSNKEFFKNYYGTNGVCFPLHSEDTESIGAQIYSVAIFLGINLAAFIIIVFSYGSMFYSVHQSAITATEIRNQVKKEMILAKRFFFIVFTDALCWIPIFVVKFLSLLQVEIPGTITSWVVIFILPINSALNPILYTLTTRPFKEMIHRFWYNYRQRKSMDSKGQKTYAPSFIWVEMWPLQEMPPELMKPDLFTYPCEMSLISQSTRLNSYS
Nature of the series: HEK-RXFP1 cAMP reporter gene assay. The class given is cell-based. As to the method: HEK-RXFP1 cAMP Reporter Gene Assay
B7-33 activity at RXFP1 was assessed using a cAMP reporter gene assay as previously described (Scott et al. J. Biol. Chem. 2006, 281:34942-3495) with slight modification. PLGA B7-33 well plate coatings, and peptide controls in the absence of PLGA (dried peptide), were compared to solubilized B7-33 solution standards ([…]) and H2 relaxin (10 nM). Wells were seeded (25,000 cells per well, 100 μL) with dispersed HEK-RXFP1-pCRE reporter cells and incubated for 6 hours. Cells were then lysed and the reporter gene stimulated β-galactosidase activity was measured using a colorimetric substrate to evaluate the relative cAMP responses. Ligand-induced cAMP stimulation was expressed as a % of maximal response to H2 relaxin. Each data point was measured in triplicate and each experiment conducted independently at least three separate times.

No end group written: not given here.

A word on the EC50: it is the concentration at which the effect is half-maximal.

Turning to `CC(C)Oc1ccccc1C(=O)Nc1ccccc1C(=O)Nc1cccc(S(=O)(=O)C(F)(F)F)c1` [ML290], in series [1], the in vivo half-life entry is “approximately 8 hours”.

In series [2], “B7-33 peptide (single B chain peptide analogue of H2 relaxin)” showed an EC50, cAMP reporter gene assay (beta-galactosidase, colorimetric) in HEK-RXFP1 cells; B7-33 peptide solution control of 1 µM and an EC50, cAMP reporter gene assay (beta-galactosidase, colorimetric) in HEK-RXFP1 cells; PLGA-free dried peptide control of 1 µM.

In the case of VIKLSGRELVRAQIAISGMSTWSKRSL-NH2 [B7-33], the “retained activity against the RXFP1 receptor after drying/oxidation” value in series [3] (HEK-RXFP1 cell assay (FIG. 2), oxidized species of B7-33 observed by MALDI) is listed as “retains activity against the RXFP1 receptor”. The compound also returned an EC50 in series [3] (cAMP reporter gene (β-galactosidase), HEK-RXFP1 cells, 6 hours incubation) of 1 µM.

In the case of recombinant human relaxin 2, in series [1], the in vivo half-life is 40 min.
